Assay results published in ChEMBL document CHEMBL1144638, “Hydantoins, triazolones, and imidazolones as selective non-hydroxamate inhibitors of tumor necrosis factor-alpha converting enzyme (TACE)” (Bioorg Med Chem Lett, 2007).

Key:
Stromelysin-1 = Stromelysin-1 (Homo sapiens, UniProt P08254); experiment: Binding affinity to MMP3
Matrilysin = target: T1, Matrilysin (Homo sapiens, UniProt P09237); experiment: Binding affinity to MMP7
T1 sequence (P09237 whole entry): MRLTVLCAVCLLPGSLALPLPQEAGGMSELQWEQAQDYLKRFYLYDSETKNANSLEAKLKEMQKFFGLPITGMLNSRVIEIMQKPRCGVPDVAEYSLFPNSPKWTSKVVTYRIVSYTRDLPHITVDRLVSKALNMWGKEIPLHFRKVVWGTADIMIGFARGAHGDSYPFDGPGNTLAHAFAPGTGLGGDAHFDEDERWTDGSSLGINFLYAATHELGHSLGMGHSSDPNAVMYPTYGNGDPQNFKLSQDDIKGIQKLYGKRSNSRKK

Collagenase 3 = Collagenase 3 (Homo sapiens, UniProt P45452); experiment: Binding affinity to MMP13
[1] = target: Macrophage metalloelastase (Homo sapiens, UniProt P39900); experiment: Binding affinity to MMP12
[2] = target: 72 kDa type IV collagenase (Homo sapiens, UniProt P08253); experiment: Binding affinity to MMP2
[3] = target: Matrix metalloproteinase-9 (Homo sapiens, UniProt P14780); experiment: Binding affinity to MMP9
Interstitial collagenase = target: T2, Interstitial collagenase (Homo sapiens, UniProt P03956); experiment: Binding affinity to MMP1
T2 sequence (P03956 whole entry): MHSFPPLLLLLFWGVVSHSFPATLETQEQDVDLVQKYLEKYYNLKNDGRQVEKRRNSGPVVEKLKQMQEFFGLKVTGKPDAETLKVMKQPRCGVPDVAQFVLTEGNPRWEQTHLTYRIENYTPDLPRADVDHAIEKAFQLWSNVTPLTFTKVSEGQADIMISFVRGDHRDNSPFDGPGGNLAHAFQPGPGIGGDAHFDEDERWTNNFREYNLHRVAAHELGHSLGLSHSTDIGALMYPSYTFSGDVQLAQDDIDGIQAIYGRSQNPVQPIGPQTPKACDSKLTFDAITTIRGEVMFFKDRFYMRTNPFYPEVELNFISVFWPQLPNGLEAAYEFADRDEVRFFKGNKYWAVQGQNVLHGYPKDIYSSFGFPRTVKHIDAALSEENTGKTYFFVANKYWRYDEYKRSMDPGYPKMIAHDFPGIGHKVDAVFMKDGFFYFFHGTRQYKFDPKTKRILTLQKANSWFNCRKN

Matrix metalloproteinase-9, sequence (P14780 whole entry): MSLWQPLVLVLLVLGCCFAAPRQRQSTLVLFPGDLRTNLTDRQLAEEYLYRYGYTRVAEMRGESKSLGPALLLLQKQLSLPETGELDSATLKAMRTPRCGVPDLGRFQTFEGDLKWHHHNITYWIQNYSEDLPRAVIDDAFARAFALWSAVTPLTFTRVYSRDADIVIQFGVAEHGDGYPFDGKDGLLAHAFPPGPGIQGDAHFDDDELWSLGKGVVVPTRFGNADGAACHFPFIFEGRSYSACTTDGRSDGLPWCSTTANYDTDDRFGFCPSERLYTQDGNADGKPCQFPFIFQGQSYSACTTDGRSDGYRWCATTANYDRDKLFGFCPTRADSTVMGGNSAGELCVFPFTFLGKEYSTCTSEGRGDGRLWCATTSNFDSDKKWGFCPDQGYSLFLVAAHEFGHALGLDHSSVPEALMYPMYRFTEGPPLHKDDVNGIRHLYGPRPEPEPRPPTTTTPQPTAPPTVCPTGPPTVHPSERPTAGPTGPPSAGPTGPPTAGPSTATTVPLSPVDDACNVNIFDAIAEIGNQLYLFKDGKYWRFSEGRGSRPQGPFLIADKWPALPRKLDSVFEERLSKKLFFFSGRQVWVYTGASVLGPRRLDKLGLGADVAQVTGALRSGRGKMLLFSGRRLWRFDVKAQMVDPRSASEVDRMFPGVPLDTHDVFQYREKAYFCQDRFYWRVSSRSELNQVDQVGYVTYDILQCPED
Macrophage metalloelastase, sequence (P39900 whole entry): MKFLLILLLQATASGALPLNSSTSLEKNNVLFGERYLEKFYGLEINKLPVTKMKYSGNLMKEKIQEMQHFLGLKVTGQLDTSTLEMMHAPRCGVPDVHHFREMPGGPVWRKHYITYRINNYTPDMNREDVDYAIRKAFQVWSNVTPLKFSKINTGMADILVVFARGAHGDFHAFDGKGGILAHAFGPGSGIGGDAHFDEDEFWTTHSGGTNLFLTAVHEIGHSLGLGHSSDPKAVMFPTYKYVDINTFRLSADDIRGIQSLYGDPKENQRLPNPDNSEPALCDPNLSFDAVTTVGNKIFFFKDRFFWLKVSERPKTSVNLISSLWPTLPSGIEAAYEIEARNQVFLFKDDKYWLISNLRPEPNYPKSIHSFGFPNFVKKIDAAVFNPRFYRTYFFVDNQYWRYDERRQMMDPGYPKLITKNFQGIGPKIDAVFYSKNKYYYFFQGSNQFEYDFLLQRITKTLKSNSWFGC
Stromelysin-1, sequence (P08254 whole entry): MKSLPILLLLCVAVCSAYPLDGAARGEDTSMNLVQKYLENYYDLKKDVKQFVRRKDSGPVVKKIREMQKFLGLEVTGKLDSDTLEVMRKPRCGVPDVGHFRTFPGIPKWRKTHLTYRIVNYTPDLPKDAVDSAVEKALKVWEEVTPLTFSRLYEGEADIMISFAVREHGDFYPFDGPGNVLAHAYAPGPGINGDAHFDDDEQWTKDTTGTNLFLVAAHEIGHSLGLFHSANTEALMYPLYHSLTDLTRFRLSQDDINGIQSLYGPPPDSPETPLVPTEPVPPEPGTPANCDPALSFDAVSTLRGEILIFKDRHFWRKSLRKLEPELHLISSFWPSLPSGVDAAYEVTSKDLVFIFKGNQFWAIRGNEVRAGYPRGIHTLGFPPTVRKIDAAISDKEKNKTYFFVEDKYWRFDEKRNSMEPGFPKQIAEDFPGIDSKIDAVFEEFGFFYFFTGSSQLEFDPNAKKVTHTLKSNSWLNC
72 kDa type IV collagenase, sequence (P08253 whole entry): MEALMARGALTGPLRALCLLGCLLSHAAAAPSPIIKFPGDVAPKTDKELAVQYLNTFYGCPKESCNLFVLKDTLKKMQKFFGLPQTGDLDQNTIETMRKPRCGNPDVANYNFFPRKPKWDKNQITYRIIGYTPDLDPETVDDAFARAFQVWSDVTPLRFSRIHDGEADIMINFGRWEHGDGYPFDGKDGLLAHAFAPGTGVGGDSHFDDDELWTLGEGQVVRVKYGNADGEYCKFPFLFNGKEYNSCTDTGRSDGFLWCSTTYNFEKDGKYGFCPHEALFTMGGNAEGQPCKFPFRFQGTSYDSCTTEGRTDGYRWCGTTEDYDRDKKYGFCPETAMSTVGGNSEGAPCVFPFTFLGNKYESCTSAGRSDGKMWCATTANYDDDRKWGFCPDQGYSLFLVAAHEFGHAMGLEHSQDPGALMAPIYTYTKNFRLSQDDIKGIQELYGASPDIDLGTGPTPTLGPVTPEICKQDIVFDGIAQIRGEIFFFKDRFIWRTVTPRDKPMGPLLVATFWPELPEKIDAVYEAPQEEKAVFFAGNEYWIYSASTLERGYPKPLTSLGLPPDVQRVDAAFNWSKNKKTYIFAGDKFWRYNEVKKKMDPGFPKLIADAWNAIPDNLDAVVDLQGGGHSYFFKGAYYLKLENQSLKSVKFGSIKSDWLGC

Row | SMILES | Ki (Stromelysin-1) [µM] | Ki (Matrilysin) [µM] | Ki (Collagenase 3) [µM] | Ki [1] [µM] | Ki [2] [µM] | Ki [3] [µM] | Ki (Interstitial collagenase) [µM]
1 | Cc1cc(COc2ccc(S(=O)(=O)NCc3n[nH]c(=O)[nH]3)cc2)c2ccccc2n1 | 0.567 | 1 | > 5.03 | 4.12 | 2.47 | – | –
2 | Cc1cc(COc2ccc(C(=O)NCC3(C)NC(=O)NC3=O)cc2)c2ccccc2n1 (stereo unspecified) | – | – | – | > 5.03 | > 3.33 | > 2.13 | > 4.95
3 | Cc1cc(COc2ccc(C(=O)Nc3ccccc3C(=O)c3c[nH]c(=O)[nH]3)cc2)c2ccccc2n1 | > 4.5 | > 6.37 | 4.31 | > 6.02 | > 3.33 | – | –
4 | Cc1cc(COc2ccc(C(=O)Nc3ccccc3C3NC(=O)NC3=O)cc2)c2ccccc2n1 (stereo unspecified) | > 4.5 | > 6.37 | > 5.03 | 0.782 | > 3.33 | – | –
5 | Cc1cc(COc2ccc(C(=O)NCc3n[nH]c(=O)[nH]3)cc2)c2ccccc2n1 | – | – | – | > 5.03 | > 3.33 | > 2.13 | > 4.95
6 | Cc1cc(COc2ccc(C(=O)N[C@H]3CN(C(=O)OC(C)(C)C)C[C@@H]3c3n[nH]c(=O)[nH]3)cc2)c2ccccc2n1 | – | – | – | > 5.03 | > 3.33 | > 2.13 | > 4.95
7 | Cc1cc(COc2ccc(C(=O)Nc3ccccc3Cc3c[nH]c(=O)[nH]3)cc2)c2ccccc2n1 | > 4.5 | > 6.37 | > 5.03 | > 6.02 | > 3.33 | – | –
8 | Cc1cc(COc2ccc(C(=O)Nc3ccccc3Cc3n[nH]c(=O)[nH]3)cc2)c2ccccc2n1 | > 4.5 | > 6.37 | 4.31 | 3.61 | > 3.33 | – | –
9 | Cc1cc(COc2ccc(S(=O)(=O)NCC3(C)NC(=O)NC3=O)cc2)c2ccccc2n1 (stereo unspecified) | – | – | – | > 5.03 | > 3.33 | > 2.13 | > 4.95
